The source of these data is the supplement of paper PMC11208160.

This data set can be described thus: recombinant barcode read abundance after kanamycin selection (control-corrected) (log10(CPM+1)); higher = more efficient recombination; sequences stand for … in AGTGCAGAGAAAATCGGCCAGTTTTCTCTGCCTGCAGTCCGCATGCCGT…ATTTATGCAGCGGACTGCCTTTCTCCCAAAGTGATAAACCGGACAGTATCATGGACCGGTTTTCCCGGTAATCCGTATTTGCAAGGTTGGTTTCACT; site = the 11-nt target. Put shortly:
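Reported as log10(CPM+1), each value stands for recombination efficiency. That efficiency is the averaged, control-corrected counts per million of barcodes found at recombinant junctions. Cells from a pooled E. coli library pairing targets with IS621 bridge RNA target-binding loops were plated twice on chloramphenicol/ampicillin LB agar (control) and twice on chloramphenicol/ampicillin/kanamycin with 0.1 mM IPTG.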
Take “CATATTACTTGGGTTCTAACCTGTTGCCTGA [CATATTACTAG_LTGcore_CT_RTGcore_TC] (site CATATTACTAG) (LTG core: CT, RTG core: TC)”: the “recombinant barcode read abundance (log10)” value came out at 0.138.
For the sequence “CATATTACTTGGGTTCTAACCTGTTGCCTGG [CATATTACTAG_LTGcore_CT_RTGcore_CC] (site CATATTACTAG) (LTG core: CT, RTG core: CC)”, the “recombinant barcode read abundance (log10)” value amounted to 0.0433.
With “CATATTATGTGGGTTCTAACCTGTTGCCTAG [CATATTACTAG_LTGcore_TG_RTGcore_CT] (site CATATTACTAG) (LTG core: TG, RTG core: CT)” the figure was 0.0521; with “CGAGCCCAATGGGTTCTAACCTGTTGCTGAG [CGAGCCCCTCA_LTGcore_AA_RTGcore_CT] (site CGAGCCCCTCA) (LTG core: AA, RTG core: CT)”, 0.0167; with “CGAGCCCACTGGGTTCTAACCTGTTGCTGAG [CGAGCCCCTCA_LTGcore_AC_RTGcore_CT] (site CGAGCCCCTCA) (LTG core: AC, RTG core: CT)”, 0.0532.
With “CGAGCCCAGTGGGTTCTAACCTGTTGCTGAG [CGAGCCCCTCA_LTGcore_AG_RTGcore_CT] (site CGAGCCCCTCA) (LTG core: AG, RTG core: CT)” the figure was 0.139; with “CGAGCCCATTGGGTTCTAACCTGTTGCTGAT [CGAGCCCCTCA_LTGcore_AT_RTGcore_AT] (site CGAGCCCCTCA) (LTG core: AT, RTG core: AT)”, 0.0704; with “CGAGCCCCCTGGGTTCTAACCTGTTGCTGAG [CGAGCCCCTCA_LTGcore_CC_RTGcore_CT] (site CGAGCCCCTCA) (LTG core: CC, RTG core: CT)”, 0.805.
With “CGAGCCCCTTGGGTTCTAACCTGTTGCTGAG [CGAGCCCCTCA_LTGcore_CT_RTGcore_CT] (site CGAGCCCCTCA) (LTG core: CT, RTG core: CT)” the figure was 2.65; with “CGAGCCCCTTGGGTTCTAACCTGTTGCTGGG [CGAGCCCCTCA_LTGcore_CT_RTGcore_CC] (site CGAGCCCCTCA) (LTG core: CT, RTG core: CC)”, 0.164.
As for “CGAGCCCCTTGGGTTCTAACCTGTTGCTGTC [CGAGCCCCTCA_LTGcore_CT_RTGcore_GA] (site CGAGCCCCTCA) (LTG core: CT, RTG core: GA)”, the “recombinant barcode read abundance (log10)” value came to 0.248.
On to “CGAGCCCCTTGGGTTCTAACCTGTTGCTGTT [CGAGCCCCTCA_LTGcore_CT_RTGcore_AA] (site CGAGCCCCTCA) (LTG core: CT, RTG core: AA)”, for which the “recombinant barcode read abundance (log10)” value is 0.266.
As to “CGAGCCCGATGGGTTCTAACCTGTTGCTGTC [CGAGCCCCTCA_LTGcore_GA_RTGcore_GA] (site CGAGCCCCTCA) (LTG core: GA, RTG core: GA)”, the “recombinant barcode read abundance (log10)” value was 0.188.
Regarding “CGAGCCCTGTGGGTTCTAACCTGTTGCTGCA [CGAGCCCCTCA_LTGcore_TG_RTGcore_TG] (site CGAGCCCCTCA) (LTG core: TG, RTG core: TG)”, the “recombinant barcode read abundance (log10)” value turned out to be 0.646.
The figure for “CGCGCCCCATGGGTTCTAACCTGTTGCGGAG [CGCGCCCCTCC_LTGcore_CA_RTGcore_CT] (site CGCGCCCCTCC) (LTG core: CA, RTG core: CT)” is 0.303; for “CGCGCCCCATGGGTTCTAACCTGTTGCGGTG [CGCGCCCCTCC_LTGcore_CA_RTGcore_CA] (site CGCGCCCCTCC) (LTG core: CA, RTG core: CA)” it is 0.162; for “CGCGCCCCCTGGGTTCTAACCTGTTGCGGGG [CGCGCCCCTCC_LTGcore_CC_RTGcore_CC] (site CGCGCCCCTCC) (LTG core: CC, RTG core: CC)” it is 0.117.
On to “CGCGCCCCGTGGGTTCTAACCTGTTGCGGAG [CGCGCCCCTCC_LTGcore_CG_RTGcore_CT] (site CGCGCCCCTCC) (LTG core: CG, RTG core: CT)”, for which the “recombinant barcode read abundance (log10)” value came out at 0.167.
